{
  "source": "patent US20100210533A1",
  "about": "“USE OF UROCORTIN AND CORTICOTROPIN-RELEASING FACTOR AS THERAPEUTIC AGENTS” (priority 2007, published 2010)",
  "key": {"HIV-1IIIB": {"tested_on": "HIV-1IIIB", "assay": "HIV-1 antiviral assay in CEM-SS cells (MTS readout)", "type": "cell-based"}, "HCMV strain AD169": {"tested_on": "HCMV strain AD169", "assay": "HCMV plaque assay in MRC-5 cells", "settings": "for inhibition of HCMV plaque formation as compared to the virus control experiment: 10 micrograms per ml, 7-10 days"}, "[1]": {"tested_on": "hepatitis B virus (HBV) ayw strain", "assay": "HBV experimental assay system, HepG2-2.2.15, TaqMan PCR of secreted HBV DNA", "type": "cell-based", "settings": "10 micrograms per ml, six days, HBV DNA by TaqMan PCR", "text": "HepG2-2.2.15 is a stable cell line containing the hepatitis B virus (HBV) ayw strain genome (ATCC Cat. No. CRL-11997). Antiviral compounds blocking any late step of viral replication such as transcription, translation, pregenome encapsidation, reverse transcription, particle assembly and release can be identified and characterized using this cell line. In this assay, an active compound will reduce the production of secreted HBV from cells, measured by utilizing real time quantitative PCR (TaqMan) assay to directly and accurately measure HBV DNA copies.\nHepG2-2.2.15 cells were plated in 96-well microtiter plates. After 16-24 hours the confluent monolayer of HepG2-2.2.15 cells was washed and the medium was replaced with complete medium containing test peptides—10 micrograms per ml—in duplicate. […] Six days following the initial administration of the peptides, the cell culture supernatants was collected, treated with pronase and DNAse and then used in a real-time quantitative TaqMan PCR assay. The PCR-amplified HBV DNA was detected in real-time by monitoring increases in fluorescence signals that result from the exonucleolytic degradation of a quenched fluorescence probe molecule that hybridizes to the mplified HBV DNA. […] Antiviral activity was calculated from the reduction in HBV DNA levels (% virus control). […]"}, "RAW 264.7 cells": {"tested_on": "RAW 264.7 cells", "assay": "Phagocytosis assay (Fluorescein-labeled Escherichia coli, flow cytometry)", "type": "cell-based, mouse", "settings": "10 micrograms per ml, 30 min preincubation, 60 min ingestion"}, "spleen cells": {"tested_on": "spleen cells", "assay": "Th1/Th2 cytokine profiling assay (Ovalbumin-restimulated spleen cells, CBA kit)", "type": "cell-based", "settings": "10 micrograms per ml; spleen cells of Ovalbumin-immunized Balb/c mice, restimulated with Ovalbumin 10 micrograms/ml; 72 hours"}, "[2]": {"tested_on": "Primary Human endothelial cells (HUVEC)", "assay": "Endothelial cell migration assay", "type": "cell-based", "settings": "10 micrograms per ml, 22 hours"}},
  "note": "No end group written: not given here.",
  "data": [
    {"compound": "Cc1cn([C@H]2C[C@H](N=[N+]=[N-])[C@@H](CO)O2)c(=O)[nH]c1=O", "note": "[AZT]", "values": [
      {"measurement": "antiviral activity of positive control compounds (HIV-1)", "setting": "HIV-1IIIB", "result": "expected levels of antiviral activity"}
    ]},
    {"compound": "Nc1nc(O)c2ncn(COC(CO)CO)c2n1", "note": "[Ganciclovir, reference compound]", "values": [
      {"measurement": "antiviral activity of positive control compound (HCMV)", "setting": "HCMV strain AD169; positive control, HCMV AD169", "result": "expected levels of antiviral activity"}
    ]},
    {"compound": "CC(C)(C)NC(=O)[C@@H]1CN(Cc2cccnc2)CCN1C[C@@H](O)C[C@@H](Cc1ccccc1)C(=O)N[C@H]1c2ccccc2C[C@H]1O", "note": "[indinavir]", "values": [
      {"measurement": "antiviral activity of positive control compounds (HIV-1)", "setting": "HIV-1IIIB", "result": "expected levels of antiviral activity"}
    ]},
    {"compound": "Asp-Asn-Pro-Ser-Leu-Ser-Ile-Asp-Leu-Thr-Phe-His-Leu-Leu-Arg-Thr-Leu-Leu-Glu-Leu-Ala-Arg-Thr-Gln-Ser-Gln-Arg-Glu-Arg-Ala-Glu-Gln-Asn-Arg- Ile-Ile-Phe-Asp-Ser-Val-NH2 (DNPSLSIDLTFHLLRTLLELARTQSQRERAEQNRIIFDSV-NH2) [Peptide 1]", "values": [
      {"measurement": "inhibition of HBV replication as compared to the virus control infection", "setting": "[1]", "result": 63.0, "unit": "%"},
      {"measurement": "effect (increase) on the phagocytic activity of murine macrophages", "setting": "RAW 264.7 cells", "result": "no inhibitory or activating effects"},
      {"measurement": "IFNγ spleen cells; TH1 response (% of control)", "setting": "spleen cells", "result": "29.0 % of control"},
      {"measurement": "IL-2 spleen cells (% of control)", "setting": "spleen cells", "result": "168.1 % of control"},
      {"measurement": "IL-4 spleen cells; TH2 response (% of control)", "setting": "spleen cells", "result": "111.6 % of control"},
      {"measurement": "IL-5 spleen cells; TH2 response (% of control)", "setting": "spleen cells", "result": "68.0 % of control"},
      {"measurement": "TNF-a spleen cells; TH1 response (% of control)", "setting": "spleen cells", "result": "84.8 % of control"},
      {"measurement": "inhibition of the tube formation of human endothelial cells (results given under Example 14, Endothelial Cell Migration Assay)", "setting": "[2]", "result": 39, "unit": "%"},
      {"measurement": "inhibition of HCMV plaque formation as compared to the virus control experiment", "setting": "HCMV strain AD169", "result": "did not inhibit"}
    ]},
    {"compound": "Ser-Glu-Glu-Pro-Pro-Ile-Ser-Leu-Asp-Leu-Thr-Phe-His-Leu-Leu-Arg-Glu-Val-Leu-Glu-Met-Ala-Arg-Ala-Glu-Gln-Leu-Ala-Gln-Gln-Ala-His-Ser-Asn- Arg-Lys-Leu-Met-Glu-Ile-Ile-NH2 (SEEPPISLDLTFHLLREVLEMARAEQLAQQAHSNRKLMEII-NH2) [Peptide 2]", "values": [
      {"measurement": "inhibition of HBV replication as compared to the virus control infection", "setting": "[1]", "result": 57.2, "unit": "%"},
      {"measurement": "effect (increase) on the phagocytic activity of murine macrophages", "setting": "RAW 264.7 cells", "result": 34.3, "unit": "%"},
      {"measurement": "IFNγ spleen cells; TH1 response (% of control)", "setting": "spleen cells", "result": "144.1 % of control"},
      {"measurement": "IL-2 spleen cells (% of control)", "setting": "spleen cells", "result": "166.5 % of control"},
      {"measurement": "IL-4 spleen cells; TH2 response (% of control)", "setting": "spleen cells", "result": "178.1 % of control"},
      {"measurement": "IL-5 spleen cells; TH2 response (% of control)", "setting": "spleen cells", "result": "7.0 % of control"},
      {"measurement": "TNF-a spleen cells; TH1 response (% of control)", "setting": "spleen cells", "result": "138.1 % of control"},
      {"measurement": "inhibition of the tube formation of human endothelial cells (results given under Example 14, Endothelial Cell Migration Assay)", "setting": "[2]", "result": "did not inhibit"},
      {"measurement": "inhibition of HCMV plaque formation as compared to the virus control experiment", "setting": "HCMV strain AD169", "result": "did not inhibit"}
    ]}
  ]
}
